Laboratory results from ChEMBL document CHEMBL1201861, “Genomics of Drug Sensitity in Cancer screening data, Wellcome Trust Sanger Institute”.

Legend:
Test in all cases: cells
ES5 = assay type: functional, cell-based, Homo sapiens; details: Homo sapiens, ES5;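 note: growth inhibition of human ES5 cells, read out by a cell viability assay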
Description: SANGER: Inhibition of human ES5 cell growth in a cell viability assay.

VA-ES-BJ = assay type: functional, cell-based, Homo sapiens; details: Homo sapiens, VA-ES-BJ;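 note: growth inhibition of the VA-ES-BJ cell line, read out by a cell viability assay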
Description: SANGER: Inhibition of human VA-ES-BJ cell growth in a cell viability assay.

DB = assay type: functional, cell-based, Homo sapiens; details: Homo sapiens, DB
Description: SANGER: Inhibition of human DB cell growth in a cell viability assay.

TE-11 = assay type: functional, cell-based; details: Homo sapiens;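 note: growth inhibition of human TE-11 cells, read out by a cell viability assay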
Description: SANGER: Inhibition of human TE-11 cell growth in a cell viability assay.

HL-60 = assay type: functional, cell-based, Homo sapiens; details: Homo sapiens, HL-60;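 note: growth inhibition of human HL-60 cells, read out with a cell viability assay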
Description: SANGER: Inhibition of human HL-60 cell growth in a cell viability assay.

TGBC24TKB = assay type: functional, cell-based; details: Homo sapiens;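 note: growth inhibition of human TGBC24TKB cells, read out with a cell viability assay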
Description: SANGER: Inhibition of human TGBC24TKB cell growth in a cell viability assay.

ES4 = assay type: functional, cell-based, Homo sapiens; details: Homo sapiens, ES4;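 note: growth inhibition of human ES4 cells, read out by a cell viability assay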
Description: SANGER: Inhibition of human ES4 cell growth in a cell viability assay.

MC116 = assay type: functional, cell-based, Homo sapiens; details: Homo sapiens, MC116;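 note: growth inhibition of MC116 cells, read out with a cell viability assay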
Description: SANGER: Inhibition of human MC116 cell growth in a cell viability assay.

NCI-H1650 = assay type: functional, cell-based, Homo sapiens; details: Homo sapiens, NCI-H1650;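 note: growth inhibition of human NCI-H1650 cells measured by a cell viability assay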
Description: SANGER: Inhibition of human NCI-H1650 cell growth in a cell viability assay.

EKVX = assay type: functional, cell-based, Homo sapiens; details: Homo sapiens, EKVX;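 note: growth inhibition of human EKVX cells, read out with a cell viability assay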
Description: SANGER: Inhibition of human EKVX cell growth in a cell viability assay.

NOS-1 = assay type: functional, cell-based, Homo sapiens; details: Homo sapiens, NOS-1;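 note: growth inhibition of the human NOS-1 cell line, read out with a cell viability assay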
Description: SANGER: Inhibition of human NOS-1 cell growth in a cell viability assay.

RPMI-8866 = assay type: functional, cell-based, Homo sapiens; details: Homo sapiens, RPMI-8866
Description: SANGER: Inhibition of human RPMI-8866 cell growth in a cell viability assay.

HT-144 = assay type: functional, cell-based, Homo sapiens; details: Homo sapiens, HT-144
Description: SANGER: Inhibition of human HT-144 cell growth in a cell viability assay.

GI-ME-N = assay type: functional, cell-based, Homo sapiens; details: Homo sapiens, GI-ME-N;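 note: growth inhibition of human GI-ME-N cells, read out with a cell viability assay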
Description: SANGER: Inhibition of human GI-ME-N cell growth in a cell viability assay.

RXF 393 = assay type: functional, cell-based, Homo sapiens; details: Homo sapiens, RXF 393;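 note: growth inhibition of human RXF 393 cells, read out with a cell viability assay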
Description: SANGER: Inhibition of human RXF393 cell growth in a cell viability assay.

KS-1 = assay type: functional, cell-based; details: Homo sapiens;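 note: growth inhibition of KS-1 cells, read out with a cell viability assay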
Description: SANGER: Inhibition of human KS-1 cell growth in a cell viability assay.

CTB-1 = assay type: functional, cell-based, Homo sapiens; details: Homo sapiens, CTB-1
Description: SANGER: Inhibition of human CTB-1 cell growth in a cell viability assay.

K562 = assay type: functional, cell-based, Homo sapiens; details: Homo sapiens, K562
Description: SANGER: Inhibition of human K-562 cell growth in a cell viability assay.

SK-MEL-1 = assay type: functional, cell-based, Homo sapiens; details: Homo sapiens, SK-MEL-1;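 note: growth inhibition of human SK-MEL-1 cells, read out by a cell viability assay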
Description: SANGER: Inhibition of human SK-MEL-1 cell growth in a cell viability assay.

SW982 = assay type: functional, cell-based; details: Homo sapiens;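 note: growth inhibition of SW982 cells, read out with a cell viability assay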
Description: SANGER: Inhibition of human SW982 cell growth in a cell viability assay.

MSTO-211H = assay type: functional, cell-based, Homo sapiens; details: Homo sapiens, MSTO-211H
Description: SANGER: Inhibition of human MSTO-211H cell growth in a cell viability assay.

SCC-15 = assay type: functional, cell-based, Homo sapiens; details: Homo sapiens, SCC-15;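 note: growth inhibition of SCC-15 cells, read out with a cell viability assay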
Description: SANGER: Inhibition of human SCC-15 cell growth in a cell viability assay.

697 = assay type: functional, cell-based, Homo sapiens; details: Homo sapiens
Description: SANGER: Inhibition of human 697 cell growth in a cell viability assay.

IST-MEL1 = assay type: functional, cell-based, Homo sapiens; details: Homo sapiens, IST-MEL1;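 note: growth inhibition of the cell line, read out with a cell viability assay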
Description: SANGER: Inhibition of human IST-MEL1 cell growth in a cell viability assay.

MN-60 = assay type: functional, cell-based, Homo sapiens; details: Homo sapiens, MN-60;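 note: growth inhibition of the MN-60 cell line, determined with a cell viability assay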
Description: SANGER: Inhibition of human MN-60 cell growth in a cell viability assay.

RCC10RGB = assay type: functional, cell-based, Homo sapiens; details: Homo sapiens, RCC10RGB;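 note: growth inhibition of human RCC10RGB cells, read out by a cell viability assay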
Description: SANGER: Inhibition of human RCC10RGB cell growth in a cell viability assay.

KP-N-YS = assay type: functional, cell-based, Homo sapiens; details: Homo sapiens, KP-N-YS;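 note: cell viability assay measuring inhibition of cell line growth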
Description: SANGER: Inhibition of human KP-N-YS cell growth in a cell viability assay.

TGBC1TKB = assay type: functional, cell-based, Homo sapiens; details: Homo sapiens, TGBC1TKB;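 note: growth inhibition of TGBC1TKB cells, read out by a cell viability assay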
Description: SANGER: Inhibition of human TGBC1TKB cell growth in a cell viability assay.

SH-4 = assay type: functional, cell-based; details: Homo sapiens;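 note: growth inhibition of SH-4 cells, read out with a cell viability assay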
Description: SANGER: Inhibition of human SH-4 cell growth in a cell viability assay.

ETK-1 = assay type: functional, cell-based, Homo sapiens; details: Homo sapiens, ETK-1;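 note: growth inhibition of human ETK-1 cells, read out with a cell viability assay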
Description: SANGER: Inhibition of human ETK-1 cell growth in a cell viability assay.

KNS-42 = assay type: functional, cell-based; details: Homo sapiens;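 note: growth inhibition of KNS-42 cells, read out with a cell viability assay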
Description: SANGER: Inhibition of human KNS-42 cell growth in a cell viability assay.

no-10 = assay type: functional, cell-based, Homo sapiens; details: Homo sapiens;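 note: growth inhibition of no-10 cells, read out with a cell viability assay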
Description: SANGER: Inhibition of human no-10 cell growth in a cell viability assay.

MZ1-PC = assay type: functional, cell-based, Homo sapiens; details: Homo sapiens, MZ1-PC;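 note: cell viability assay measuring growth inhibition of human MZ1-PC cells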
Description: SANGER: Inhibition of human MZ1-PC cell growth in a cell viability assay.

ONS-76 = assay type: functional, cell-based, Homo sapiens; details: Homo sapiens, ONS-76;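 note: growth inhibition of human ONS-76 cells, read out with a cell viability assay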
Description: SANGER: Inhibition of human ONS-76 cell growth in a cell viability assay.

NCI-H2126 = assay type: functional, cell-based, Homo sapiens; details: Homo sapiens, NCI-H2126;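 note: growth inhibition of the cancer cell line, determined with a cell viability readout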
Description: SANGER: Inhibition of human NCI-H2126 cell growth in a cell viability assay.

SF-539 = assay type: functional, cell-based, Homo sapiens; details: Homo sapiens, SF-539;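 note: Read-out is a cell viability assay, with IC50 reflecting inhibition of cell growth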
Description: SANGER: Inhibition of human SF539 cell growth in a cell viability assay.

NCI-H446 = assay type: functional, cell-based, Homo sapiens; details: Homo sapiens, NCI-H446;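 note: growth inhibition of NCI-H446 cells determined by a cell viability assay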
Description: SANGER: Inhibition of human NCI-H446 cell growth in a cell viability assay.

BB49-HNC = assay type: functional, cell-based, Homo sapiens; details: Homo sapiens, BB49-HNC;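 note: cell viability assay read-out, reported as inhibition of BB49-HNC cell growth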
Description: SANGER: Inhibition of human BB49-HNC cell growth in a cell viability assay.

KURAMOCHI = assay type: functional, cell-based, Homo sapiens; details: Homo sapiens, KURAMOCHI;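 note: growth inhibition of KURAMOCHI cells, read out with a cell viability assay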
Description: SANGER: Inhibition of human KURAMOCHI cell growth in a cell viability assay.

GOTO = assay type: functional, cell-based, Homo sapiens; details: Homo sapiens, GOTO;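 note: growth inhibition of GOTO cells, read out by a cell viability assay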
Description: SANGER: Inhibition of human GOTO cell growth in a cell viability assay.

LB831-BLC = assay type: functional, cell-based, Homo sapiens; details: Homo sapiens, LB831-BLC;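 note: growth inhibition of LB831-BLC cells, read out with a cell viability assay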
Description: SANGER: Inhibition of human LB831-BLC cell growth in a cell viability assay.

KALS-1 = assay type: functional, cell-based, Homo sapiens; details: Homo sapiens, KALS-1; read-out: IC50;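 note: growth inhibition of KALS-1 cells, determined with a cell viability assay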
Description: SANGER: Inhibition of human KALS-1 cell growth in a cell viability assay.

EM-2 = assay type: functional, cell-based, Homo sapiens; details: Homo sapiens, EM-2;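 note: growth inhibition of EM-2 cells, read out with a cell viability assay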
Description: SANGER: Inhibition of human EM-2 cell growth in a cell viability assay.

KGN = assay type: functional, cell-based, Homo sapiens; details: Homo sapiens, KGN;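 note: growth inhibition of KGN cells, read out with a cell viability assay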
Description: SANGER: Inhibition of human KGN cell growth in a cell viability assay.

Mo = assay type: functional, cell-based, Homo sapiens; details: Homo sapiens, Mo
Description: SANGER: Inhibition of human Mo-T cell growth in a cell viability assay.

TGW = assay type: functional, cell-based, Homo sapiens; details: Homo sapiens, TGW;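 note: growth inhibition of human TGW cells, read out with a cell viability assay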
Description: SANGER: Inhibition of human TGW cell growth in a cell viability assay.

LU-139 = assay type: functional, cell-based, Homo sapiens; details: Homo sapiens, LU-139
Description: SANGER: Inhibition of human LU-139 cell growth in a cell viability assay.

JVM-2 = assay type: functional, cell-based, Homo sapiens; details: Homo sapiens, JVM-2;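 note: growth inhibition of JVM-2 cells determined by a cell viability assay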
Description: SANGER: Inhibition of human JVM-2 cell growth in a cell viability assay.

EW-3 = assay type: functional, cell-based, Homo sapiens; details: Homo sapiens, EW-3;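 note: cell viability assay read-out, IC50 reflects inhibition of growth of the EW-3 cells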
Description: SANGER: Inhibition of human EW-3 cell growth in a cell viability assay.

KU812 cell line = assay type: functional, cell-based, Homo sapiens; details: Homo sapiens, KU812;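 note: growth inhibition of KU812 cells, read out with a cell viability assay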
Description: SANGER: Inhibition of human KU812 cell growth in a cell viability assay.

HCC2218 = assay type: functional, cell-based, Homo sapiens; details: Homo sapiens, HCC2218;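 note: cell viability assay read-out, with IC50 given as the concentration that inhibits growth of the cell line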
Description: SANGER: Inhibition of human HCC2218 cell growth in a cell viability assay.

SMILES: O=C(NCCCNc1nc(Nc2cccc(NC(=O)N3CCCC3)c2)ncc1I)c1cccs1 [BX-795]
- IC50 (ES5): 1.19 µM
- IC50 (VA-ES-BJ): 0.985 µM
- IC50 (DB): 2.13 µM
- IC50 (TE-11): 1.65 µM
- IC50 (HL-60): 2.54 µM
- IC50 (TGBC24TKB): > 5 µM
- IC50 (ES4): > 5 µM
- IC50 (MC116): > 5 µM
- IC50 (NCI-H1650): > 5 µM
- IC50 (EKVX): > 5 µM
- IC50 (NOS-1): > 5 µM
- IC50 (RPMI-8866): > 5 µM
- IC50 (HT-144): > 5 µM
- IC50 (GI-ME-N): 1.87 µM
- IC50 (RXF 393): 3.41 µM
- IC50 (KS-1): 1.83 µM
- IC50 (CTB-1): 2.4 µM
- IC50 (K562): > 5 µM
- IC50 (SK-MEL-1): > 5 µM
- IC50 (SW982): 0.951 µM
- IC50 (MSTO-211H): > 5 µM
- IC50 (SCC-15): > 5 µM
- IC50 697: 1.02 µM
- IC50 (IST-MEL1): > 5 µM
- IC50 (MN-60): 3.59 µM
- IC50 (RCC10RGB): > 5 µM
- IC50 (KP-N-YS): > 5 µM
- IC50 (TGBC1TKB): > 5 µM
- IC50 (SH-4): > 5 µM
- IC50 (ETK-1): 4.52 µM
- IC50 (KNS-42): > 5 µM
- IC50 (no-10): > 5 µM
- IC50 (MZ1-PC): > 5 µM
- IC50 (ONS-76): 4.08 µM
- IC50 (NCI-H2126): > 5 µM
- IC50 (SF-539): 3.74 µM
- IC50 (NCI-H446): 4.93 µM
- IC50 (BB49-HNC): > 5 µM
- IC50 (KURAMOCHI): > 5 µM
- IC50 (GOTO): > 5 µM
- IC50 (LB831-BLC): > 5 µM
- IC50 (KALS-1): 3.31 µM
- IC50 (EM-2): 2.35 µM
- IC50 (KGN): 2.23 µM
- IC50 (Mo): > 5 µM
- IC50 (TGW): 4.58 µM

SMILES: CN(C)CCOc1ccc(-c2nc(-c3ccncc3)c(-c3ccc4c(c3)CC/C4=N\O)[nH]2)cc1 [SB590885]
- IC50 (ES5): > 5 µM
- IC50 (VA-ES-BJ): > 5 µM
- IC50 (DB): > 5 µM
- IC50 (LU-139): > 5 µM
- IC50 (TE-11): > 5 µM
- IC50 (HL-60): > 5 µM
- IC50 (TGBC24TKB): > 5 µM
- IC50 (ES4): > 5 µM
- IC50 (MC116): > 5 µM
- IC50 (NCI-H1650): > 5 µM
- IC50 (EKVX): > 5 µM
- IC50 (NOS-1): > 5 µM
- IC50 (RPMI-8866): > 5 µM
- IC50 (HT-144): 0.435 µM
- IC50 (GI-ME-N): > 5 µM
- IC50 (RXF 393): > 5 µM
- IC50 (KS-1): > 5 µM
- IC50 (CTB-1): > 5 µM
- IC50 (K562): > 5 µM
- IC50 (SK-MEL-1): > 5 µM
- IC50 (JVM-2): > 5 µM
- IC50 (SW982): > 5 µM
- IC50 (MSTO-211H): > 5 µM
- IC50 (SCC-15): > 5 µM
- IC50 (EW-3): 3.56 µM
- IC50 697: > 5 µM
- IC50 (IST-MEL1): > 5 µM
- IC50 (KU812 cell line): > 5 µM
- IC50 (MN-60): > 5 µM
- IC50 (RCC10RGB): > 5 µM
- IC50 (KP-N-YS): > 5 µM
- IC50 (TGBC1TKB): > 5 µM
- IC50 (SH-4): 0.812 µM
- IC50 (ETK-1): > 5 µM
- IC50 (KNS-42): > 5 µM
- IC50 (no-10): > 5 µM
- IC50 (MZ1-PC): > 5 µM
- IC50 (ONS-76): > 5 µM
- IC50 (NCI-H2126): > 5 µM
- IC50 (SF-539): > 5 µM
- IC50 (NCI-H446): > 5 µM
- IC50 (BB49-HNC): > 5 µM
- IC50 (HCC2218): 1.06 µM
- IC50 (KURAMOCHI): > 5 µM
- IC50 (GOTO): > 5 µM
- IC50 (LB831-BLC): > 5 µM
- IC50 (EM-2): > 5 µM
- IC50 (KGN): > 5 µM
- IC50 (Mo): > 5 µM
- IC50 (TGW): > 5 µM

SMILES: NC1(c2ccc(-c3nc4ccn5c(=O)[nH]nc5c4cc3-c3ccccc3)cc2)CCC1 [MK-2206]
- IC50 (ES5): 0.345 µM
- IC50 (VA-ES-BJ): 0.73 µM
- IC50 (DB): > 4 µM
- IC50 (LU-139): > 4 µM
- IC50 (TE-11): > 4 µM
- IC50 (HL-60): > 4 µM
- IC50 (TGBC24TKB): > 4 µM
- IC50 (ES4): > 4 µM
- IC50 (MC116): > 4 µM
- IC50 (NCI-H1650): > 4 µM
- IC50 (EKVX): > 4 µM
- IC50 (NOS-1): 0.637 µM
- IC50 (RPMI-8866): > 4 µM
- IC50 (HT-144): > 4 µM
- IC50 (GI-ME-N): > 4 µM
- IC50 (RXF 393): 2.6 µM
- IC50 (KS-1): 2.38 µM
- IC50 (CTB-1): 1.29 µM
- IC50 (K562): > 4 µM
- IC50 (SK-MEL-1): > 4 µM
- IC50 (JVM-2): > 4 µM
- IC50 (SW982): > 4 µM
- IC50 (MSTO-211H): > 4 µM
- IC50 (SCC-15): > 4 µM
- IC50 (EW-3): 3.2 µM
- IC50 697: 1.38 µM
- IC50 (IST-MEL1): > 4 µM
- IC50 (KU812 cell line): > 4 µM
- IC50 (MN-60): 2.3 µM
- IC50 (RCC10RGB): > 4 µM
- IC50 (KP-N-YS): > 4 µM
- IC50 (TGBC1TKB): > 4 µM
- IC50 (SH-4): > 4 µM
- IC50 (ETK-1): > 4 µM
- IC50 (KNS-42): > 4 µM
- IC50 (no-10): > 4 µM
- IC50 (MZ1-PC): > 4 µM
- IC50 (ONS-76): > 4 µM
- IC50 (SF-539): > 4 µM
- IC50 (NCI-H446): > 4 µM
- IC50 (BB49-HNC): > 4 µM
- IC50 (HCC2218): 1.68 µM
- IC50 (KURAMOCHI): > 4 µM
- IC50 (GOTO): > 4 µM
- IC50 (LB831-BLC): > 4 µM
- IC50 (EM-2): 0.979 µM
- IC50 (KGN): > 4 µM
- IC50 (Mo): > 4 µM
- IC50 (TGW): > 4 µM
